# Where two headings read alike, the source gives them in different places.
# What was measured:
# [1] = test system: dopamine D2/D3; experiment: D2/D3 RO by dynamic 11C raclopride PET after oral LB-102 in healthy volunteers (Example 1); format: in vivo, human
# [2] = test system: Dopamine (e.g., D2/D3); experiment: Dopamine RO % by raclopride PET after LB-102, various dosage regimens (Example 3); format: in vivo, human; details: group mean
# [3] = Demethylation of LB-102 to amisulpride in preclinical animal models; format: in vivo
# [4] = PK analysis of LB-102 in healthy human subjects, single and multiple ascending doses (Example 2); format: in vivo; details: for half-life / Cmax / Tmax: both sexes, plasma, oral
# Procedure: Healthy females and males between 18 and 55 years of age with BMI≥18 and ≤30 kg/m2 were enrolled in the study. Exclusion criteria included: history or presence of psychiatric disorder, drug or alcohol abuse, history of QT prolongation or dysrhythmia, fasting blood glucose level of 126 mg/dL, or a known allergy to the drug or its metabolites. The study was planned as a two part study. Part A was comprised of 5 single ascending dose groups, each of 8 subjects. Part B was comprised of 3 multiple ascending doses, two doses a day for 7 days ([…] doses in total) each of 8 subjects. All subjects were randomized 3:1 drug:placebo. The primary endpoint of the study was safety, with pharmacokinetics as a secondary objective.
# Plasma concentrations of LB-102 were obtained as a function of time for single oral administration of LB-102 to human subjects at 10 mg (larger cross), 50 mg (triangle), 100 mg (square), 150 mg (smaller cross), and 200 mg (diamond), respectively, are further provided in FIG. 3.
# [5] = 50 mg LB102 oral, 2.5 h after admin
# [6] = 50 mg LB102 oral, 7.5 h after admin
# [7] = 50 mg LB102 oral, 23.5 h after admin
# [8] = 100 mg LB102 oral, 2.5 h after admin
# [9] = 100 mg LB102 oral, 7.5 h after admin
# [10] = 100 mg LB102 oral, 23.5 h after admin
smiles,measurement,setting,value
CCN1CCCC1CNC(=O)c1cc(S(=O)(=O)CC)c(NC)cc1OC (stereo not drawn) [LB-102],Caudate % RO,[1]; [5],26%
same,Putamen % RO,[1]; [5],22%
same,Caudate % RO,[1]; [6],43%
same,Putamen % RO,[1]; [6],36%
same,Caudate % RO,[1]; [7],50%
same,Putamen % RO,[1]; [7],39%
same,Caudate % RO,[1]; [8],48%
same,Putamen % RO,[1]; [8],42%
same,Caudate % RO,[1]; [9],77%
same,Putamen % RO,[1]; [9],71%
same,Caudate % RO,[1]; [10],74%
same,Putamen % RO,[1]; [10],67%
same,dopamine D2/D3 RO in caudate/putamen,"[1]; single oral dose of 50 mg, human subjects (FIG. 1A)",about 50%
same,dopamine D2/D3 RO in caudate/putamen,"[1]; single oral dose of 100 mg, human subjects (FIG. 1B)",~75%
same,Dopamine RO % (Caudate + Putamen),"[2]; 50 mg SS (once a day for 4 days), 8 h after Day 4 administration",72%
same,Dopamine RO % (Caudate + Putamen),"[2]; 75 mg QD, 48 h after LB-102 administration",37%
same,demethylated to amisulpride,[3],up to 50%
same,AUC0-inf D1,"[4]; 50 mg every 12 hours, D1, mean (SD)",1012.6 (100.4) ngh/mL
same,AUC0-inf D7,"[4]; 50 mg every 12 hours, D7, mean (SD)",2489.1 (312.4) ngh/mL
same,CL/F,"[4]; 50 mg every 12 hours, mean (SD)",33.8 (3.1) L/h
same,AUC relative to AUC of 50 mg amisulpride,[4]; 50 mg oral LB-102 vs published 50 mg amisulpride,about 2.5 times
same,AUC0-inf D1,"[4]; 75 mg every 12 hours, D1, mean (SD)",1777.9 (309.0) ngh/mL
same,CL/F,"[4]; 75 mg every 12 hours, mean (SD)",34.9 (8.8) L/h
same,AUC0-inf D1,"[4]; 100 mg every 12 hours, D1, mean (SD)",2152.9 (439.9) ngh/mL
same,accumulation across dose levels,[4]; MAD portion of the study,slight to moderate accumulation
same,trough concentrations,[4]; MAD portion of the study,plateaued prior to the morning dose on Day 4
same,half-life,"[4]; human, 10 mg, single administration 10 mg, mean (SD), read-out: T1/2 (converted)",13.7 h
same,Cmax,"[4]; human, 10 mg, single administration 10 mg, mean, read-out: Cmax",24.1 ng/mL
same,Tmax,"[4]; human, 10 mg, single administration 10 mg, read-out: Tmax",3 h
same,Cmax,"[4]; human, 50 mg, 50 mg every 12 hours, D1, mean (SD), read-out: Cmax D1",126 ng/mL
same,half-life,"[4]; human, 50 mg, 50 mg every 12 hours, D1, mean (SD), read-out: T1/2 D1 (converted)",4.2 h
same,Tmax,"[4]; human, 50 mg, 50 mg every 12 hours, D1, read-out: Tmax D1",2.5 h
same,Cmax,"[4]; human, 50 mg, 50 mg every 12 hours, D7, mean (SD), read-out: Cmax D7",224 ng/mL
same,half-life,"[4]; human, 50 mg, 50 mg every 12 hours, D7, mean (SD), read-out: T1/2 D7 (converted)",14.3 h
same,Tmax,"[4]; human, 50 mg, 50 mg every 12 hours, D7, read-out: Tmax D7",2.5 h
same,half-life,"[4]; human, 50 mg, single administration 50 mg, mean (SD), read-out: T1/2 (converted)",11.9 h
same,Cmax,"[4]; human, 50 mg, single administration 50 mg, mean, read-out: Cmax",176 ng/mL
same,Tmax,"[4]; human, 50 mg, single administration 50 mg, read-out: Tmax",3 h
same,Cmax,"[4]; human, 75 mg, 75 mg every 12 hours, D1, mean (SD), read-out: Cmax D1",267 ng/mL
same,half-life,"[4]; human, 75 mg, 75 mg every 12 hours, D1, mean (SD), read-out: T1/2 D1 (converted)",4 h
same,Tmax,"[4]; human, 75 mg, 75 mg every 12 hours, D1, read-out: Tmax D1",3 h
same,Cmax,"[4]; human, 75 mg, 75 mg every 12 hours, D7, mean (SD), read-out: Cmax D7",309 ng/mL
same,Tmax,"[4]; human, 75 mg, 75 mg every 12 hours, D7, read-out: Tmax D7",2 h
same,Cmax,"[4]; human, 100 mg, 100 mg every 12 hours, D1, mean (SD), read-out: Cmax D1",325 ng/mL
same,half-life,"[4]; human, 100 mg, 100 mg every 12 hours, D1, mean (SD), read-out: T1/2 D1 (converted)",4.12 h
same,Tmax,"[4]; human, 100 mg, 100 mg every 12 hours, D1, read-out: Tmax D1",2.5 h
same,half-life,"[4]; human, 100 mg, single administration 100 mg, mean (SD), read-out: T1/2 (converted)",14.1 h
same,Cmax,"[4]; human, 100 mg, single administration 100 mg, mean, read-out: Cmax",348 ng/mL
same,Tmax,"[4]; human, 100 mg, single administration 100 mg, read-out: Tmax",3 h
same,half-life,"[4]; human, 150 mg, single administration 150 mg, mean (SD), read-out: T1/2 (converted)",12 h
same,Cmax,"[4]; human, 150 mg, single administration 150 mg, mean, read-out: Cmax",596 ng/mL
same,Tmax,"[4]; human, 150 mg, single administration 150 mg, read-out: Tmax",3 h
same,half-life,"[4]; human, 200 mg, single administration 200 mg, mean (SD), read-out: T1/2 (converted)",13 h
same,Cmax,"[4]; human, 200 mg, single administration 200 mg, mean, read-out: Cmax",976 ng/mL
same,Tmax,"[4]; human, 200 mg, single administration 200 mg, read-out: Tmax",3 h
same,metabolism of LB-102 to amisulpride,[4]; human (FIG. 2),< 3%
same,increase of exposure with dose,"[4]; oral dosing, human",slightly greater than dose proportional
same,absorption,"[4]; orally dosed, human",rapidly absorbed
same,AUC0-inf,"[4]; single administration 10 mg, mean",252.6 ngh/mL
same,CL/F,"[4]; single administration 10 mg, mean (SD)",42.4 (12.6) L/h
same,AUC0-inf,"[4]; single administration 50 mg, mean",1595.9 ngh/mL
same,CL/F,"[4]; single administration 50 mg, mean (SD)",31.7 (3.8) L/h
same,AUC0-inf,"[4]; single administration 100 mg, mean",2809.8 ngh/mL
same,CL/F,"[4]; single administration 100 mg, mean (SD)",36.6 (6.9) L/h
same,AUC0-inf,"[4]; single administration 150 mg, mean",4636.6 ngh/mL
same,CL/F,"[4]; single administration 150 mg, mean (SD)",33.1 (5.3) L/h
same,AUC0-inf,"[4]; single administration 200 mg, mean",7002.1 ngh/mL
same,CL/F,"[4]; single administration 200 mg, mean (SD)",28.9 (3.4) L/h
same,AUC,[4]; single oral administration of 50 mg to human subjects (FIG. 4B),"1,595 ngh/mL"

# — US20240115547A1, “PSYCHOTROPIC AGENTS AND USES THEREOF” (LB PHARMACEUTICALS INC., priority 2021, published 2024)
